Experimental findings from ChEMBL document CHEMBL1130439, “Constrained analogues of 2-nor cyclic nucleoside monophosphates” (1997) are described below.

The test system of test [1] is F2002 cell line. As to the kind of experiment: The compound was tested for inhibitory activity against human cytomegalovirus (HCMV) (WFl strain) in plaque reduction assay in flow 2002 cells. It counts as functional. On the technique in general: In a plaque reduction assay, fewer plaques than in the control indicate reduced infectivity or spread.
Test [2] has as its system F2002 cell line. As to the kind of experiment: The compound was tested for inhibitory activity against human cytomegalovirus (HCMV) in flow 2002 cells. The class given is functional. Particulars: read-out: CD50 (the source's name).
The subject of test [3] is Vero. As to the kind of experiment: Compound was tested against HSV-2 (186 strain) in plaque reduction assay in Vero cells; no inhibition up to 100 ug/ml. It counts as functional, cell-based. Particulars: Chlorocebus sabaeus.
The subject of test [4] is MT4. As to the kind of experiment: Compound was tested against HIV-l (RF strain) in plaque reduction assay in MT-4 cells; no inhibition up to 100 ug/ml. Particulars: Homo sapiens. The class given is functional, cell-based.
Test [5] relates to Vero. As to the kind of experiment: Compound was tested against HSV-1 (KOS strain) in plaque reduction assay in Vero cells; no inhibition up to 100 ug/ml. The settings on record: Chlorocebus sabaeus. The class given is functional, cell-based.
Test [6] relates to F2002 cell line. As to the kind of experiment: The compound was tested for inhibitory activity against human cytomegalovirus (HCMV) in flow 2002 cells; no inhibition up to 100 ug/ml. It counts as functional, cell-based.
Test [7] has as its system MT4. As to the kind of experiment: Compound was tested against HIV-l (RF strain) in plaque reduction assay in MT-4 cells; no inhibition up to 100 ug/ml.. The class given is functional, cell-based. Particulars: Homo sapiens.

In turn, `Nc1nc2c(ncn2COC(CO)CO)c(=O)[nH]1` [GANCICLOVIR] registered a PD50 with F2002 cell line [1] of 0.1 µg/mL. In addition, the CC50 in the test on F2002 cell line [2] is > 100 µg/mL.

As to `Nc1nc(=O)n(C2CSC3(COP(=O)(O)OC3)O2)cc1Br` (stereo not given), the Activity entry in the test on Vero [3], with MT4 [4] and with Vero [5] was “No inhibition” each time. This compound registered a PD50 with F2002 cell line [1] of 2.5 µg/mL. For the same compound, the CC50 in the test with F2002 cell line [2] is > 100 µg/mL.

For `CC(=O)Nc1nc(=O)n(C2CSC(CO)(CO)O2)cc1Br` (stereo not given), the Activity result in the test with F2002 cell line [6] is “No inhibition”.

Regarding `N.Nc1ccn(C2CSC3(COP(=O)(O)OC3)O2)c(=O)n1` (stereo not given), the Activity result in the test with Vero [3], in the test with MT4 [4] and with Vero [5] was “No inhibition” in each case. This compound registered a PD50 in the test with F2002 cell line [1] of 11 µg/mL. For the same compound, the CC50 in the test with F2002 cell line [2] is > 100 µg/mL.

On to `Cc1cn(C2CSC3(COP(=O)(O)OC3)O2)c(=O)[nH]c1=O` (stereo not given), for which the Activity entry in the test on Vero [3], in the test on MT4 [4] and with Vero [5] was “No inhibition” throughout. In addition, in the test with F2002 cell line [1], the PD50 was >100 µg/mL. For the same compound, the CC50 in the test with F2002 cell line [2] is > 100 µg/mL.

`N.Nc1nc2c(ncn2C2CSC3(COP(=O)(O)OC3)O2)c(=O)[nH]1` (stereo not given): the Activity entry in the test on Vero [3], with MT4 [4] and with Vero [5] was “No inhibition” throughout. In addition, in the test on F2002 cell line [1], the PD50 is >100 µg/mL. Moreover, in the test on F2002 cell line [2], the CC50 is > 100 µg/mL.

`O=c1ccn(C2CSC3(COP(=O)(O)OC3)O2)c(=O)[nH]1` (stereo not given): the Activity entry in the test with Vero [3], in the test with MT4 [7] and in the test with Vero [5] was “No inhibition” throughout. Besides, in the test on F2002 cell line [1], the PD50 turned out to be 2.5 µg/mL. Moreover, the CC50 in the test on F2002 cell line [2] was > 100 µg/mL.

Consider `Nc1nc(=O)n(C2CSC3(COP(=O)(O)OC3)O2)cc1F` (stereo not given), for which the Activity entry with Vero [3], in the test with MT4 [4] and with Vero [5] was “No inhibition” each time. For the same compound, the PD50 in the test with F2002 cell line [1] was >100 µg/mL. Besides, the CC50 in the test on F2002 cell line [2] is > 100 µg/mL.

Turning to `CC(=O)Nc1ccn(C2CSC(CO)(CO)O2)c(=O)n1` (stereo not given), in the test on F2002 cell line [6], the Activity entry is “No inhibition”.

Consider `O=c1ccn(C2CSC(CO)(CO)O2)c(=O)[nH]1` (stereo not given), for which, in the test with F2002 cell line [6], the Activity result was “No inhibition”.
